Tests used:
Format in all cases: in vivo
[1] = system: Beet Armyworm (Spodoptera exigua, LAPHEG) second instar larvae; assay: Bioassay on Beet Armyworm (BAW), 128-well diet tray assay; conditions: for pest or weed control at 50 µg/cm2: Beet Armyworm, Table ABC Biological Results, read-out: BAW rating; for mortality at 0.05 µg/cm2: 0.05 μg/cm^2 on artificial diet; for mortality at 0.05 µg/cm2 / mortality at 0.5 µg/cm2 / mortality at 5 µg/cm2: read-out: Percent control (or mortality) BAW; for mortality at 0.5 µg/cm2: 0.5 μg/cm^2 on artificial diet; for mortality at 5 µg/cm2: 5 μg/cm^2 on artificial diet
Description: (§1) Certain molecules disclosed in this document were tested against BAW, CEW, and CL using procedures described in the following examples. In the reporting of the results, the “BAW, CEW, & CL Rating Table” was used (See Table Section).
Bioassays on BAW were conducted using a 128-well diet tray assay. one to five second instar BAW larvae were placed in each well (3 mL) of the diet tray that had been previously filled with 1 mL of artificial diet to which 50 μg/cm^2 of the test molecule (dissolved in 50 μL of 90:10 acetone-water mixture) had been applied (to each of eight wells) and then allowed to dry. Trays were covered with a clear self-adhesive cover and held at 25° C., 14:10 light-dark for five to seven days. Percent mortality was recorded for the larvae in each well; activity in the eight wells was then averaged. The results are indicated in the table entitled “Table ABC: Biological Results” (See Table Section).
(§2) Bioassays on BAW and CL were conducted according to the procedures outlined in Example A: Bioassays on Beet Armyworm (“BAW”) and Cabbage Looper (“CL”) using the indicated concentrations.

[2] = system: Cabbage Looper (Trichoplusia ni, TRIPNI) second instar larvae; assay: Bioassay on Cabbage Looper (CL), 128-well diet tray assay; conditions: for pest or weed control at 50 µg/cm2: Cabbage Looper, Table ABC Biological Results, read-out: CL rating; for mortality at 0.05 µg/cm2: 0.05 μg/cm^2 on artificial diet; for mortality at 0.05 µg/cm2 / mortality at 0.5 µg/cm2 / mortality at 5 µg/cm2: read-out: Percent control (or mortality) CL; for mortality at 0.5 µg/cm2: 0.5 μg/cm^2 on artificial diet; for mortality at 5 µg/cm2: 5 μg/cm^2 on artificial diet
Description: as §1
Bioassays on CL were conducted using a 128-well diet tray assay. one to five second instar CL larvae were placed in each well (3 mL) of the diet tray that had been previously filled with 1 mL of artificial diet to which 50 μg/cm^2 of the test molecule (dissolved in 50 μL of 90:10 acetone-water mixture) had been applied (to each of eight wells) and then allowed to dry. Trays were covered with a clear self-adhesive cover and held at 25° C., 14:10 light-dark for five to seven days. Percent mortality was recorded for the larvae in each well; activity in the eight wells was then averaged. The results are indicated in the table entitled “Table ABC: Biological Results” (See Table Section).
as §2

[3] = system: Yellow Fever Mosquito (Aedes aegypti, AEDSAE) larvae; assay: Bioassay on Yellow Fever Mosquito (YFM), 96-well plate larval assay; conditions: Table ABC Biological Results
Description: Certain molecules disclosed in this document were tested against YFM using procedures described in the following paragraph. In the reporting of the results, the “GPA & YFM Rating Table” was used (See Table Section).
Master plates containing 400 μg of a molecule dissolved in 100 μL of dimethyl sulfoxide (DMSO) (equivalent to a 4000 ppm solution) are used. A master plate of assembled molecules contains 15 μL per well. To this plate, 135 μL of a 90:10 water:acetone mixture is added to each well. A robot (Biomek® NXP Laboratory Automation Workstation) is programmed to dispense 15 μL aspirations from the master plate into an empty 96-well shallow plate (“daughter” plate). There are 6 reps (“daughter” plates) created per master. The created daughter plates are then immediately infested with YFM larvae.
The day before plates are to be treated, mosquito eggs are placed in Millipore water containing liver powder to begin hatching (4 g. into 400 mL). After the daughter plates are created using the robot, they are infested with 220 μL of the liver powder/larval mosquito mixture (about 1 day-old larvae). After plates are infested with mosquito larvae, a non-evaporative lid is used to cover the plate to reduce drying. Plates are held at room temperature for 3 days prior to grading. After 3 days, each well is observed and scored based on mortality. The results are indicated in the table entitled “Table ABC: Biological Results” (See Table Section).

SMILES | pest or weed control at 50 µg/cm2 [1] | pest or weed control at 50 µg/cm2 [2] | YFM rating [3] | other results
C[C@H](NC(=O)CC(F)(F)F)NC(=O)c1ccc(/C(F)=C/C(c2cc(Cl)cc(Cl)c2)C(F)(F)F)cc1C(F)(F)F (stereo partly drawn) [F11, 4-((Z)-3-(3,5-dichlorophenyl)-1,4,4,4-tetrafluorobut-1-en-1-yl)-2-(trifluoromethyl)-N—((R)-1-(3,3,3-trifluoropropanamido)ethyl)benzamide] | 50 to 100% | 50 to 100% | A (80-100) | –
C[C@H](NC(=O)CCC(F)(F)F)NC(=O)c1ccc(/C(F)=C/C(c2cc(Cl)cc(Cl)c2)C(F)(F)F)cc1C(F)(F)F (stereo partly drawn) [F12, 4-((Z)-3-(3,5-Dichlorophenyl)-1,4,4,4-tetrafluorobut-1-en-1-yl)-N—((R)-1-(4,4,4-trifluorobutanamido)ethyl)-2-(trifluoromethyl)benzamide] | 50 to 100% | 50 to 100% | A (80-100) | –
C[C@H](NC(=O)CC(F)(F)F)NC(=O)c1ccc(/C(F)=C/C(c2ccc(Cl)c(Cl)c2)C(F)(F)F)cc1C(F)(F)F (stereo partly drawn) [F13, 4-((Z)-3-(3,4-Dichlorophenyl)-1,4,4,4-tetrafluorobut-1-en-1-yl)-2-(trifluoromethyl)-N—((R)-1-(3,3,3-trifluoropropanamido)ethyl)benzamide] | 50 to 100% | 50 to 100% | A (80-100) | –
C[C@H](NC(=O)CCC(F)(F)F)NC(=O)c1ccc(/C(F)=C/C(c2ccc(Cl)c(Cl)c2)C(F)(F)F)cc1C(F)(F)F (stereo partly drawn) [F14, 4-((Z)-3-(3,4-Dichlorophenyl)-1,4,4,4-tetrafluorobut-1-en-1-yl)-N—((R)-1-(4,4,4-trifluorobutanamido)ethyl)-2-(trifluoromethyl)benzamide] | 50 to 100% | 50 to 100% | A (80-100) | –
C[C@H](NC(=O)CCC(F)(F)F)NC(=O)c1ccc(/C(F)=C/C(c2cc(Cl)c(Br)c(Cl)c2)C(F)(F)F)cc1C(F)(F)F (stereo partly drawn) [F15, 4-((Z)-3-(4-Bromo-3,5-dichlorophenyl)-1,4,4,4-tetrafluorobut-1-en-1-yl)-N—((R)-1-(4,4,4-trifluorobutanamido)ethyl)-2-(trifluoromethyl)benzamide] | 50 to 100% | 50 to 100% | A (80-100) | –
C=Cc1c(Cl)cc(C(/C=C(\F)c2ccc(C(=O)N[C@H](C)NC(=O)CC(F)(F)F)c(C(F)(F)F)c2)C(F)(F)F)cc1Cl (stereo partly drawn) [F18, 4-((Z)-3-(3,5-Dichloro-4-vinylphenyl)-1,4,4,4-tetrafluorobut-en-1-yl)-2-(trifluoromethyl)-N—((R)-1-(3,3,3-trifluoropropanamido)ethyl)benzamide] | 50 to 100% | 50 to 100% | A (80-100) | –
C=Cc1c(Cl)cc(C(/C=C(\F)c2ccc(C(=O)N[C@H](C)NC(=O)CCC(F)(F)F)c(C(F)(F)F)c2)C(F)(F)F)cc1Cl (stereo partly drawn) [F19, 4-((Z)-3-(3,5-Dichloro-4-vinylphenyl)-1,4,4,4-tetrafluorobut-1-en-1-yl)-N—((R)-1-(4,4,4-trifluorobutanamido)ethyl)-2-(trifluoromethyl)benzamide] | 50 to 100% | 50 to 100% | A (80-100) | –
CC[C@H](NC(=O)CC(F)(F)F)NC(=O)c1ccc(/C(F)=C/C(c2cc(Cl)c(Cl)c(Cl)c2)C(F)(F)F)cc1C(F)(F)F (stereo partly drawn) [F35, 4-((Z)-1,4,4,4-Tetrafluoro-3-(3,4,5-trichlorophenyl)but-1-en-1-yl)-2-(trifluoromethyl)-N—((R)-1-(3,3,3-trifluoropropanamido)propyl)benzamide] | 50 to 100% | 50 to 100% | – | –
C[C@H](NC(=O)CC(F)(F)F)NC(=O)c1ccc(/C(F)=C/C(c2ccc(Cl)c(Br)c2)C(F)(F)F)cc1C(F)(F)F (stereo partly drawn) [F37, 4-((Z)-3-(3-Bromo-4-chlorophenyl)-1,4,4,4-tetrafluorobut-1-en-1-yl)-2-(trifluoromethyl)-N—((R)-1-(3,3,3-trifluoropropanamido)ethyl)benzamide] | 50 to 100% | 50 to 100% | – | –
C[C@H](NC(=O)CC(F)(F)F)NC(=O)c1ccc(/C(F)=C/C(c2ccc(Cl)c(Cl)c2)C(C)(F)F)cc1C(F)(F)F (stereo partly drawn) [F39, 4-((Z)-3-(3,4-Dichlorophenyl)-1,4,4-trifluoropent-1-en-1-yl)-2-(trifluoromethyl)-N—((R)-1-(3,3,3-trifluoropropanamido)ethyl)benzamide] | 50 to 100% | 50 to 100% | – | –
C[C@H](NC(=O)CCC(F)(F)F)NC(=O)c1ccc(/C(F)=C/C(c2ccc(Cl)c(Cl)c2)C(C)(F)F)cc1C(F)(F)F (stereo partly drawn) [F40, 4-((Z)-3-(3,4-Dichlorophenyl)-1,4,4-trifluoropent-1-en-1-yl)-N—((R)-1-(4,4,4-trifluorobutanamido)ethyl)-2-(trifluoromethyl)benzamide] | 50 to 100% | 50 to 100% | – | –
C[C@H](NC(=O)CC(F)(F)F)NC(=O)c1ccc(/C(F)=C/C(c2cc(Cl)c(Cl)c(Cl)c2)C(F)(F)F)cc1 (stereo partly drawn) [FC1, 4-((Z)-1,4,4,4-Tetrafluoro-3-(3,4,5-trichlorophenyl)but-1-en-1-yl)-N—((R)-1-(3,3,3-trifluoropropanamido)ethyl)benzamide, reference compound] | – | – | – | mortality at 0.05 µg/cm2 [1]: 0%; mortality at 0.5 µg/cm2 [1]: 0%; mortality at 5 µg/cm2 [1]: 7%; mortality at 0.05 µg/cm2 [2]: 0%; mortality at 0.5 µg/cm2 [2]: 0%; mortality at 5 µg/cm2 [2]: 100%
C[C@H](NC(=O)CCC(F)(F)F)NC(=O)c1ccc(/C(F)=C/C(c2cc(Cl)c(Cl)c(Cl)c2)C(F)(F)F)cc1 (stereo partly drawn) [FC2, 4-((Z)-1,4,4,4-Tetrafluoro-3-(3,4,5-trichlorophenyl)but-1-en-1-yl)-N—((R)-1-(4,4,4-trifluorobutanamido)ethyl)benzamide, reference compound] | – | – | – | mortality at 0.05 µg/cm2 [1]: 0%; mortality at 0.5 µg/cm2 [1]: 0%; mortality at 5 µg/cm2 [1]: 100%; mortality at 0.05 µg/cm2 [2]: 0%; mortality at 0.5 µg/cm2 [2]: 6%; mortality at 5 µg/cm2 [2]: 100%
C[C@H](NC(=O)CC(F)(F)F)NC(=O)c1ccc(/C(F)=C/C(c2ccc(Br)c(Cl)c2)C(F)(F)F)cc1C(F)(F)F (stereo partly drawn) [PF8, 4-((Z)-3-(4-Bromo-3-chlorophenyl)-1,4,4,4-tetrafluorobut-1-en-1-yl)-2-(trifluoromethyl)-N—((R)-1-(3,3,3-trifluoropropanamido)ethyl)benzamide] | 50 to 100% | 50 to 100% | – | –
C[C@H](NC(=O)CCC(F)(F)F)NC(=O)c1ccc(/C(F)=C/C(c2ccc(Cl)c(Br)c2)C(F)(F)F)cc1C(F)(F)F (stereo partly drawn) [PF13, 4-((Z)-3-(3-Bromo-4-chlorophenyl)-1,4,4,4-tetrafluorobut-1-en-1-yl)-N—((R)-1-(4,4,4-trifluorobutanamido)ethyl)-2-(trifluoromethyl)benzamide] | 50 to 100% | 50 to 100% | – | –
C[C@@H](NC(=O)c1ccc(/C(F)=C/C(c2cc(Cl)c(Cl)c(Cl)c2)C(F)(F)F)cc1C(F)(F)F)NC(=O)C1(C#N)CC1 (stereo partly drawn) [PF31, N—((S)-1-(1-Cyanocyclopropane-1-carboxamido)ethyl)-4-((Z)-1,4,4,4-tetrafluoro-3-(3,4,5-trichlorophenyl)but-1-en-1-yl)-2-(trifluoromethyl)benzamide] | 50 to 100% | 50 to 100% | – | –
